{"source": "paper PMC7180738", "about": "“Design, Synthesis and Characterization of a New Series of Fluorescent Metabotropic Glutamate Receptor Type 5 Negative Allosteric Modulators” (Molecules, 2020)", "target": "T1, mGlu5bR (metabotropic glutamate receptor type 5) (Rattus norvegicus, UniProt P31424)", "T1 construct": "gene Grm5; mGlu5bR^NL: NanoLuc fused at the N terminus of rat mGlu5bR, expressed in HEK293T cells", "T1 sequence (P31424 21-1203)": "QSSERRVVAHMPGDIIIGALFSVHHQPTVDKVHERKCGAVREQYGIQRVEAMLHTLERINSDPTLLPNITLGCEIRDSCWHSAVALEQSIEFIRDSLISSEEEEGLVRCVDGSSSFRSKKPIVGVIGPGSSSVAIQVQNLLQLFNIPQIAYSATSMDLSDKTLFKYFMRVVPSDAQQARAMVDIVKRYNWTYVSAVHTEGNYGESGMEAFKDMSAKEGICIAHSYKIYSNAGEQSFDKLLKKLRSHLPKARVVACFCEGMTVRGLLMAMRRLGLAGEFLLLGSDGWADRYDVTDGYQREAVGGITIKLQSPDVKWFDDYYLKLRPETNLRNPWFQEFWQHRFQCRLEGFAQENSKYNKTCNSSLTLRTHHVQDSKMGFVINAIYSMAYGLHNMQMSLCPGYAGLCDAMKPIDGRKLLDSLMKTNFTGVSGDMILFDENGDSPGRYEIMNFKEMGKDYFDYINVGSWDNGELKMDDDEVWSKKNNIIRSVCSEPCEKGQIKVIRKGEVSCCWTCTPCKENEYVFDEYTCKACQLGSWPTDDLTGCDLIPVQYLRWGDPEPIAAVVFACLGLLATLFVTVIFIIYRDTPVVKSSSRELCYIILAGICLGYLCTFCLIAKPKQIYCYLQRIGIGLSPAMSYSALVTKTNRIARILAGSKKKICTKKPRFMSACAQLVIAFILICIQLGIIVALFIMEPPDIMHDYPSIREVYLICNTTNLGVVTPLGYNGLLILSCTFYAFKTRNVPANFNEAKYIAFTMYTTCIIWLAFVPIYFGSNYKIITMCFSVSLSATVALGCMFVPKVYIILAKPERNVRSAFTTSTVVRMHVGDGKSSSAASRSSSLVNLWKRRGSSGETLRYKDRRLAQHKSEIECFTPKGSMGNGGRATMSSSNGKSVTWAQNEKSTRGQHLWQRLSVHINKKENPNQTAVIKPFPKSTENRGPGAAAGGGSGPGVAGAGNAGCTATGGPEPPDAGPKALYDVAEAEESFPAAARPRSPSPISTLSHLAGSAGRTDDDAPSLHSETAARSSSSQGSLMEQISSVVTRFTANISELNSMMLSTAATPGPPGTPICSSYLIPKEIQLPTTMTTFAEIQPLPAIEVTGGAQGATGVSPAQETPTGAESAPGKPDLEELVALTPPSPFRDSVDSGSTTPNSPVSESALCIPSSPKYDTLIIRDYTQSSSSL", "assay": "NanoBRET saturation binding in living HEK293T cells, displaced by […] MTEP; also NFAT-luciferase NAM assay", "type": "cell-based", "data": [{"smiles": "COc1ccc(C2=[N+]3C(=C(CCCCc4cn(CCOCCOCCOCCOCCOCCNC(=O)COc5cncc(C#Cc6csc(C)n6)c5)nn4)c4ccc(-c5ccc(OC)cc5)n4[B-]3(F)F)C=C2)cc1", "note": "[4a, N-(17-(4-(4-(5,5-difluoro-3,7-bis(4-methoxyphenyl)-5H-4λ^4,5λ^4-dipyrrolo [1,2-c:2’,1’-f][1,3,2]diazaborinin-10-yl)butyl)-1H-1,2,3-triazol-1-yl)-3,6,9,12,15-pentaoxaheptadecyl)-2-((5-((2-methylthiazol-4-yl)ethynyl)pyridin-3-yl)oxy)acetamide]", "values": [{"measurement": "Kd", "result": "0.84 ± 0.74", "unit": "µM"}]}, {"smiles": "COc1ccc(C2=[N+]3C(=C(CCCCc4cn(CCCCCCCCN(C)CCCCCNC(=O)COc5cncc(C#Cc6csc(C)n6)c5)nn4)c4ccc(-c5ccc(OC)cc5)n4[B-]3(F)F)C=C2)cc1", "note": "[4e, N-(5-((8-(4-(4-(5,5-difluoro-3,7-bis(4-methoxyphenyl)-5H-4λ^4,5λ^4-dipyrrolo[1,2-c:2’,1’-f][1,3,2]diazaborinin-10-yl)butyl)-1H-1,2,3-triazol-1-yl)octyl)(methyl)amino)pentyl)-2-((5-((2-methylthiazol-4-yl)ethynyl)pyridin-3-yl)oxy)acetamide]", "values": [{"measurement": "Kd", "result": "1.4 ± 1.2", "unit": "µM"}]}]}
